Laboratory results reported in patent US9403811B2, “Crystalline forms of azilsartan medoxomil potassium and preparation and uses thereof” (SUNSHINE LAKE PHARMA CO., LTD., priority 2012, dated 2016).

Tests used:
Stability test = type: physicochemical
Procedure: The stability test of the crystalline form C was conducted under the following conditions:
Storage condition 1: stored under conditions of 40° C./RH75% in a sealed state for 3 and 6 months. […] During the whole test period, no change in total amount of impurities was recognized as compared with that before the beginning of the test.
Storage condition 2: stored under conditions of 40° C./RH75% in an unsealed state for 1 and 3 months.

Solubility test = type: physicochemical; settings: for Solubility: THF (volume of solvent in which the solid dissolved): 0.50 g solid added to THF at room temperature; for Solubility: THF (volume of solvent in which the solid dissolved) / Solubility: Acetone (volume of solvent in which the solid dissolved) / Solubility: Ethanol (volume of solvent in which the solid dissolved) / Solubility: Ethyl acetate (volume of solvent in which the solid dissolved) / Solubility: Methanol (volume of solvent in which the solid dissolved): shaking 30 seconds every 5 minutes, observed with eyes; for Solubility: Acetone (volume of solvent in which the solid dissolved): 0.50 g solid added to acetone at room temperature; for Solubility: Ethanol (volume of solvent in which the solid dissolved): 0.50 g solid added to ethanol at room temperature; for Solubility: Ethyl acetate (volume of solvent in which the solid dissolved): 0.50 g solid added to ethyl acetate at room temperature; for Solubility: Methanol (volume of solvent in which the solid dissolved): 0.50 g solid added to methanol at room temperature; for Solubility: Result: 0.50 g solid in the listed solvent volumes, room temperature, dissolved = no solid detected by human eyes
Procedure: The crystalline form C, D, F, H, J and L of azilsartan medoxomil potassium (0.50 g) was added to the solvent at room temperature. […] The solid was deemed as dissolved when no solid was detected in the mixture by human eyes.
The solubility data of crystalline forms C, D, F, H, J and L of azilsartan medoxomil potassium are as shown below.

Compound	conversion of the crystalline form into other polymorphs (Stability test; storage condition 1: 40° C./RH75%, sealed state, after six months)	change in total amount of impurities compared with before the beginning of the test (Stability test; storage condition 1: 40° C./RH75%, sealed state, whole test period (3 and 6 months))	total amount of impurities compared with before the beginning of the test (Stability test; storage condition 2: 40° C./RH75%, unsealed state, 1 and 3 months)	conversion of the crystalline form into other polymorphs (Stability test; storage condition 2: 40° C./RH75%, unsealed state, after three months)	Solubility: THF (volume of solvent in which the solid dissolved) (Solubility test)	Solubility: Acetone (volume of solvent in which the solid dissolved) (Solubility test)	Solubility: Ethanol (volume of solvent in which the solid dissolved) (Solubility test)	Solubility: Ethyl acetate (volume of solvent in which the solid dissolved) (Solubility test)	Solubility: Methanol (volume of solvent in which the solid dissolved) (Solubility test)	Solubility: Result (Solubility test)
CCOc1nc2cccc(C(=O)OCc3oc(=O)oc3C)c2n1Cc1ccc(-c2ccccc2-c2noc(=O)[n-]2)cc1.[K+] [Form C, azilsartan medoxomil potassium]	could not be confirmed	no change	increased	could not be confirmed	13 mL	8 mL	6 mL	10 mL	5 mL	dissolved
CCOc1nc2cccc(C(=O)OCc3oc(=O)oc3C)c2n1Cc1ccc(-c2ccccc2-c2noc(=O)[n-]2)cc1.[K+] [Form D, azilsartan medoxomil potassium]					16.5 ml^	9 mL	5 mL	12 mL	4 mL	dissolved
CCOc1nc2cccc(C(=O)OCc3oc(=O)oc3C)c2n1Cc1ccc(-c2ccccc2-c2noc(=O)[n-]2)cc1.[K+] [Form F, azilsartan medoxomil potassium]					15 mL	12 mL	6 mL	16 mL	4.5 ml^	dissolved
CCOc1nc2cccc(C(=O)OCc3oc(=O)oc3C)c2n1Cc1ccc(-c2ccccc2-c2noc(=O)[n-]2)cc1.[K+] [Form H, azilsartan medoxomil potassium]					14 mL	10 mL	8 mL	13 mL	6 mL	dissolved
CCOc1nc2cccc(C(=O)OCc3oc(=O)oc3C)c2n1Cc1ccc(-c2ccccc2-c2noc(=O)[n-]2)cc1.[K+] [Form J, azilsartan medoxomil potassium]					12 mL	8 mL	5.5 ml^	11 mL	4 mL	dissolved
CCOc1nc2cccc(C(=O)OCc3oc(=O)oc3C)c2n1Cc1ccc(-c2ccccc2-c2noc(=O)[n-]2)cc1.[K+] [Form L, azilsartan medoxomil potassium]					17 mL	11 mL	6 mL	14 mL	5 mL	dissolved
